According to PubChem BioAssay (NCI):
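Five concentrations, 48 hours, 96-well plates. GI50 marks 50% less growth. TGI is the concentration that stops growth completely.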

Key:
Assay in all cases: inhibition of tumour cell growth, NCI panel, 48 h
[1] = system: IGROV1 ovarian
[2] = system: OVCAR-3 ovarian
[3] = system: SK-MEL-5 melanoma
[4] = system: MALME-3M melanoma
[5] = system: HT29 colon
[6] = system: UO-31 renal
[7] = system: HOP-92 NSCLC
[8] = system: NCI-H460 lung
[9] = system: HCT-116 colon
[10] = system: NCI-H522 lung

Compound | GI50 [1] | TGI [1] | GI50 [2] | TGI [2] | GI50 [3] | TGI [3] | GI50 [4] | TGI [4] | GI50 [5] | TGI [5] | GI50 [6] | TGI [6] | GI50 [7] | TGI [7] | GI50 [8] | TGI [8] | GI50 [9] | TGI [9] | GI50 [10] | TGI [10]
Clc1ccc(-c2cc(-c3ccccc3)nc(N3CCN(CCCNc4ccnc5cc(Cl)ccc45)CC3)n2)cc1 | 1.45 µM | 2.89 µM | 1.55 µM | 2.98 µM | 1.67 µM | 3.06 µM | 1.81 µM | 3.35 µM | 0.464 µM | 1.76 µM | 1.55 µM | 2.9 µM | 1.21 µM | 2.6 µM | 1.56 µM | 3.1 µM | 0.934 µM | 2.22 µM | 1.78 µM | 3.54 µM
NC(N)=NN=c1c(=O)c2ccccc2c1=O | 17.2 µM | 35.3 µM | 13 µM | 26.4 µM | 2.93 µM | 11.7 µM | 1.66 µM | 3.06 µM | 2.81 µM | 6.27 µM | 6.81 µM | 20.1 µM | 19.3 µM | 34.9 µM | 2.92 µM | 7.14 µM | 2.01 µM | 4.18 µM | 17.7 µM | 32.8 µM
O=C(O)C1C2C=CC(O2)C1C(=O)NCc1cccnc1 (stereo not given) | – | > 100 µM | – | > 100 µM | – | > 100 µM | – | > 100 µM | – | > 100 µM | – | > 100 µM | – | > 100 µM | – | > 100 µM | – | > 100 µM | – | > 100 µM
CC(Oc1cc2oc(=O)cc(-c3ccccc3)c2cc1Cl)C(=O)O (stereo not given) | – | > 100 µM | – | > 100 µM | – | > 100 µM | – | > 100 µM | – | > 100 µM | – | > 100 µM | – | > 100 µM | – | > 100 µM | – | > 100 µM | – | > 100 µM
C[C@@H](C1CC[C@H]2[C@@H]3[C@@H]4O[C@@H]4[C@@]4(O)CC=CC(=O)[C@]4(C)[C@H]3C[C@H](O)[C@]12C)[C@H]1C[C@]2(C)O[C@]2(C)C(=O)O1 (stereo not given in full) | – | > 100 µM | – | > 100 µM | – | > 100 µM | – | > 100 µM | – | > 100 µM | – | > 100 µM | – | > 100 µM | – | > 100 µM | – | > 100 µM | – | > 100 µM
NC(CCSCC(F)(F)F)C(=O)O (stereo not given) | – | > 100 µM | – | > 100 µM | – | > 100 µM | – | > 100 µM | – | > 100 µM | – | > 100 µM | – | > 100 µM | – | > 100 µM | – | > 100 µM | – | > 100 µM
O=C(CCc1nc(=S)[nH][nH]1)Nc1cc(Cl)ccc1Cl | – | > 100 µM | – | > 100 µM | – | > 100 µM | – | > 100 µM | – | > 100 µM | – | > 100 µM | – | > 100 µM | – | > 100 µM | – | > 100 µM | – | > 100 µM
O=C(Nc1ccc(OS(=O)(=O)c2ccc(F)cc2)cc1)C12CC3CC(CC(C3)C1)C2 | 16.1 µM | > 62.5 µM | 8.64 µM | 46.3 µM | 4.12 µM | > 100 µM | 9.13 µM | 54.4 µM | 0.211 µM | > 100 µM | 6.21 µM | > 100 µM | 3.45 µM | 18.1 µM | 8.09 µM | > 100 µM | 0.929 µM | > 100 µM | 1.72 µM | > 100 µM
